Experimental findings from patent publication US10710994B2, “Oxadiazole transient receptor potential channel inhibitors” (Genentech, Inc., priority 2018, dated 2020) are described below.

In general, IC50 refers to the concentration needed to halve the response being measured.

For the assay, the target named is human TRPA1 channel (Homo sapiens (Human), UniProt O75762). The assay can be described thus: hTRPA1 CHO Ca2+ FLIPR Tetra assay: block of cinnamaldehyde induced calcium influx. Type of assay: cell-based. To be noted: CHO cells expressing TRPA1, Hill coefficient fixed to 1.5. Summed up: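 TRPA1-expressing CHO cells loaded with calcium indicator dye (1 h 37° C, then 15 min room temperature) in HBSS/20 mM HEPES pH 7.4/0.02% BSA. IC50 from fits with fixed Hill coefficient.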
Chain of human TRPA1 channel (O75762 whole entry): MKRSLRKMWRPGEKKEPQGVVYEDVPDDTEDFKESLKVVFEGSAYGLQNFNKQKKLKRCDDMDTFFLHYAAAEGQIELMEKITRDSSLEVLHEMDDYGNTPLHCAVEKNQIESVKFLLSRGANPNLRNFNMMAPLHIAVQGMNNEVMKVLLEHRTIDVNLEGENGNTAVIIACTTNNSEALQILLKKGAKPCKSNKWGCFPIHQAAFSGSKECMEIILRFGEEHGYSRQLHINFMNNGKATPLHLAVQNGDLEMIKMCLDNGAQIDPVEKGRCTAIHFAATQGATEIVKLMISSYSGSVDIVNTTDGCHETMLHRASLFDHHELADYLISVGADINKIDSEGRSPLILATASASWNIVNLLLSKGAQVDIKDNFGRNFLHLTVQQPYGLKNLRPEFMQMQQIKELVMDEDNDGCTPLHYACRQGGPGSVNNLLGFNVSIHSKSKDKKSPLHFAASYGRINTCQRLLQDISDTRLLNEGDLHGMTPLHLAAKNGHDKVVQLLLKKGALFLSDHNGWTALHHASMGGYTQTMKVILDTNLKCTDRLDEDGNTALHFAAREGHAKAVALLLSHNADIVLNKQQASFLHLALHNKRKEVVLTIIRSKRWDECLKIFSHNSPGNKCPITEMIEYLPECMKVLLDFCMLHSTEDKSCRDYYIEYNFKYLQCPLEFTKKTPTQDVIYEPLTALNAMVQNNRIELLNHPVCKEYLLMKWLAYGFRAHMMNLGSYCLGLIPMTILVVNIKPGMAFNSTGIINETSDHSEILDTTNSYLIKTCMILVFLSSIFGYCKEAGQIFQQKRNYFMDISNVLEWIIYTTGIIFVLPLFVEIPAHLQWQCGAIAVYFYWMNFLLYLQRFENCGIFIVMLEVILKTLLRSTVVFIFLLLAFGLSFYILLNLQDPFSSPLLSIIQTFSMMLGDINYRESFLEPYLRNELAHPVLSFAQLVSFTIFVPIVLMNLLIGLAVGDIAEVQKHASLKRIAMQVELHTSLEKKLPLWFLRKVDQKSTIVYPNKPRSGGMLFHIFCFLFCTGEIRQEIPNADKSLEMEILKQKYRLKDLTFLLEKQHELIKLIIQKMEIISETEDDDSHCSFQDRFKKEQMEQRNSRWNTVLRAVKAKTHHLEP

[1] abbreviates: read-out: hTRPA1 IC50 10 min, 10 minutes incubation with compound before cinnamaldehyde (about EC80).
The mark [2] stands for this setting: read-out: hTRPA1 IC50 90 min, 90 minutes incubation with compound before cinnamaldehyde (about EC80).

Each structure is given as a SMILES string. Read-outs that look alike come from different tables or passages of the source.

Regarding `Nc1nc2ncn(Cc3nc([C@@H]4CO[C@@H](c5ccc(F)cc5)C4)no3)c(=O)c2s1` [Example 126, 2-amino-6-((3-((3R,5R)-5-(4-fluorophenyl)tetrahydrofuran-3-yl)-1,2,4-oxadiazol-5-yl)methyl) thiazolo[4,5-d]pyrimidin-7(6H)-one], the IC50 was 0.0899 µM under setting [1] and 0.036 µM under setting [2].

With `Cc1cnn2nc(N)n(Cc3nc([C@@H]4CO[C@@H](c5cccc(F)c5)C4)no3)c(=O)c12` [Example 127, 2-amino-3-((3-((3R,5R)-5-(3-fluorophenyl)tetrahydro-3-yl)-1,2,4-oxadiazol-5-yl)methyl)-5-methylpyrazolo[5,1-f] [1,2,4]triazin-4(3H)-one], the IC50 reads like this: under setting [1], 0.0179 µM; under setting [2], 0.0029 µM.

Turning to `Cc1cnc(N)n(Cc2nc([C@@H]3CO[C@@H](c4ccc(Cl)cc4)C3)no2)c1=O` [Example 128, 2-amino-3-((3-((3R,5R)-5-(4-chlorophenyl)tetra-hydrofuran-3-yl)-1,2,4-oxadiazol-5-yl)methyl)-5-methylpyrimidin-4(3H)-one], the 50% inhibitory concentration (IC50) runs as follows: under setting [1], 0.146 µM; under setting [2], 0.067 µM.

Take `Nc1nc2ncn(Cc3nc([C@@H]4CO[C@@H](c5ccc(Cl)cc5)C4)no3)c(=O)c2s1` [Example 129, 2-amino-6-((3-((3R,5R)-5-(4-chlorophenyl)tetrahydrofuran-3-yl)-1,2,4-oxadiazol-5-yl)methyl)thiazolo[4,5-d] pyrimidin-7(6H)-one]: the concentration for half-maximal inhibition (IC50) was found to be 0.0151 µM under setting [1] and 0.0056 µM under setting [2].

In the case of `Nc1nc(=O)c2cccnc2n1Cc1nc([C@@H]2CO[C@@H](c3ccc(F)cc3)C2)no1` [Example 130, 2-amino-1-((3-((3R,5R)-5-(4-fluorophenyl)tetra-hydrofuran-3-yl)-1,2,4-oxadiazol-5-yl)methyl) pyrido[2,3-d]pyrimidin-4(1H)-one], the IC50 stood at 0.0833 µM under setting [1] and 0.015 µM under setting [2].

As to `Cn1cnc2c(C#N)nn(Cc3nc([C@@H]4CO[C@@H](c5ccc(Cl)cc5)C4)no3)c(=O)c21` [Example 131, 6-((3-((3R,5R)-5-(4-chlorophenyl)tetrahydro-furan-3-yl)-1,2,4-oxadiazol-5-yl)methyl)-1-methyl-7-oxo-6,7-dihydro-1H-imidazo[4,5-d]pyridazine-4-carbonitrile], the IC50 is 0.00742 µM under setting [1] and 0.0031 µM under setting [2].

Turning to `Cc1ccnc2nc(N)n(Cc3nc([C@@H]4CO[C@@H](c5ccc(F)cc5)C4)no3)c(=O)c12` [Example 133, 2-amino-3-((3-((3R,5R)-5-(4-fluorophenyl)tetra-hydrofuran-3-yl)-1,2,4-oxadiazol-5-yl)methyl)-5-methylpyrido[2,3-d] pyrimidin-4(3H)-one], the IC50 by setting is: under setting [1], 0.0134 µM; under setting [2], 0.0014 µM.

For `Cc1ccnc2c1c(=O)nc(N)n2Cc1nc([C@@H]2CO[C@@H](c3ccc(Cl)cc3)C2)no1` [Example 134, 2-amino-1-((3-((3R,5R)-5-(4-chlorophenyl)tetrahydro-furan-3-yl)-1,2,4-oxadiazol-5-yl)methyl)-5-methylpyrido[2,3-d] pyrimidin-4(1H)-one], the IC50 under setting [1] was determined as 0.02 µM and the IC50 under setting [2] was found to be 0.006 µM.

As for `Cc1ccnc2nc(N)n(Cc3nc([C@@H]4CO[C@@H](c5ccc(Cl)cc5)C4)no3)c(=O)c12` [Example 135, 2-amino-3-((3-((3R,5R)-5-(4-chlorophenyl)tetrahydro-furan-3-yl)-1,2,4-oxadiazol-5-yl)methyl)-5-methylpyrido[2,3-d] pyrimidin-4(3H)-one], the IC50 stood at 0.0104 µM under setting [1] and 0.0015 µM under setting [2].

As to `Cn1cnc2nc(N)n(Cc3nc([C@@H]4CO[C@@H](c5ccc(C(F)(F)F)cc5)C4)no3)c(=O)c21` [Example 136, 2-amino-7-methyl-1-((3-((3R,5R)-5-(4-(trifluoromethyl)phenyl)tetrahydrofuran-3-yl)-1,2,4-oxadiazol-5-yl)methyl)-1,7-dihydro-6H-purin-6-one], the IC50 was found to be 0.0973 µM under setting [1] and 0.011 µM under setting [2].
